The supplement of paper PMC10307832

Tests used:
Assay in all cases: relative viability (nuclei count vs DMSO), 5 days (fraction); higher = more cells survive
4EGI-1 + Foretinib = compound: O=C(O)C(Cc1ccccc1[N+](=O)[O-])=NNc1nc(-c2ccc(Cl)c(Cl)c2)cs1 (mixture of isomers) [4EGI-1] + COc1cc2c(Oc3ccc(NC(=O)C4(C(=O)Nc5ccc(F)cc5)CC4)cc3F)ccnc2cc1OCCCN1CCOCC1 [Foretinib] (partner 0.25 µM)
How it was run: (§1)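 Relative viability equals treated-well nuclei counts divided by vehicle-well nuclei counts. Counts came from 4× images of lung cancer cell lines grown in 1536-well plates for 5 days after pin-tool dosing on the day after seeding. Dosing used one drug alone or a fixed anchor-drug dose plus five library-drug doses (not always all listed) in √10 steps, and values are medians of duplicate plates.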

XMD8-85 + Dasatinib = compound: CN1CCN(CC1)C2=CC(=C(C=C2)NC3=NC=C4C(=N3)N(C5=CC=CC=C5C(=O)N4C)C)OC [XMD8-85] + Cc1nc(Nc2ncc(C(=O)Nc3c(C)cccc3Cl)s2)cc(N2CCN(CCO)CC2)n1 [Dasatinib] (partner 0.075 µM)
How it was run: as §1

4EGI-1 + Trametinib = compound: O=C(O)C(Cc1ccccc1[N+](=O)[O-])=NNc1nc(-c2ccc(Cl)c(Cl)c2)cs1 (mixture of isomers) [4EGI-1] + CC(=O)Nc1cccc(-n2c(=O)n(C3CC3)c(=O)c3c(Nc4ccc(I)cc4F)n(C)c(=O)c(C)c32)c1 [Trametinib] (partner 0.02 µM)
How it was run: as §1

4EGI-1 + Pictilisib = compound: O=C(O)C(Cc1ccccc1[N+](=O)[O-])=NNc1nc(-c2ccc(Cl)c(Cl)c2)cs1 (mixture of isomers) [4EGI-1] + CS(=O)(=O)N1CCN(Cc2cc3nc(-c4cccc5[nH]ncc45)nc(N4CCOCC4)c3s2)CC1 [Pictilisib] (partner 1 µM)
How it was run: as §1

Cell Line | relative viability (4EGI-1 + Foretinib; first compound 0.5 µM) | relative viability (4EGI-1 + Foretinib; first compound 5 µM) | relative viability (4EGI-1 + Foretinib; first compound 15.81 µM) | relative viability (4EGI-1 + Foretinib; first compound 50 µM) | relative viability (XMD8-85 + Dasatinib; first compound 0.08 µM) | relative viability (XMD8-85 + Dasatinib; first compound 0.253 µM) | relative viability (XMD8-85 + Dasatinib; first compound 0.8 µM) | relative viability (XMD8-85 + Dasatinib; first compound 2.53 µM) | relative viability (XMD8-85 + Dasatinib; first compound 8 µM) | relative viability (4EGI-1 + Trametinib; first compound 0.5 µM) | relative viability (4EGI-1 + Trametinib; first compound 5 µM) | relative viability (4EGI-1 + Trametinib; first compound 15.81 µM) | relative viability (4EGI-1 + Trametinib; first compound 50 µM) | relative viability (4EGI-1 + Pictilisib; first compound 0.5 µM) | relative viability (4EGI-1 + Pictilisib; first compound 1.581 µM) | relative viability (4EGI-1 + Pictilisib; first compound 5 µM) | relative viability (4EGI-1 + Pictilisib; first compound 15.81 µM) | relative viability (4EGI-1 + Pictilisib; first compound 50 µM) | relative viability (4EGI-1 + Foretinib; first compound 1.581 µM) | relative viability (4EGI-1 + Trametinib; first compound 1.581 µM)
HCC-78 | 0.636 | 0.547 | 0.416 | 0.525 | 0.567 | 0.48 | 0.42 | 0.352 | 0.242 | 1.18 | 0.733 | 0.674 | 0.788 | 0.206 | 0.257 | 0.153 | 0.191 | 0.234 |  | 
CAL-12T | 1.11 | 1.08 | 1.07 | 0.589 | 0.374 | 0.363 | 0.431 | 0.447 | 0.225 | 0.348 | 0.358 | 0.281 | 0.191 |  |  | 0.431 | 0.347 | 0.225 | 0.857 | 
NCI-H3122 | 0.897 | 0.927 | 0.986 | 0.684 | 0.933 |  | 0.984 | 0.861 | 0.794 | 0.235 | 0.233 | 0.232 | 0.305 | 0.599 | 0.531 | 0.632 | 0.635 | 0.412 | 0.897 | 0.246
LOU-NH91 | 0.944 | 0.995 | 0.545 | 0.906 | 0.553 | 0.555 | 0.573 | 0.571 | 0.459 | 0.812 | 0.764 | 0.704 | 0.724 | 0.532 |  | 0.539 | 0.478 | 0.484 |  | 
ChaGo-K-1 | 0.942 | 0.816 | 0.975 | 0.799 | 0.449 |  | 0.613 | 0.57 | 0.577 | 0.911 | 0.896 | 0.942 | 0.592 | 0.612 |  | 0.759 | 0.453 | 0.219 | 0.935 | 0.845
NCI-H727 | 1.07 | 0.767 | 1.19 | 0.324 | 0.295 | 0.416 | 0.442 | 0.344 | 0.353 | 0.365 | 0.377 | 0.386 | 0.376 | 0.382 | 0.451 | 0.26 | 0.344 | 0.328 | 1.07 | 0.398
NCI-H2009 | 1.28 | 1.27 | 1.23 | 0.981 | 0.285 | 0.29 | 0.288 | 0.209 | 0.167 | 0.339 | 0.306 | 0.24 | 0.139 | 1.08 | 0.772 | 1.06 | 0.843 | 0.169 | 1.29 | 0.28
NCI-H23 | 1.04 | 1.1 | 0.933 | 0.638 | 0.719 | 0.853 | 0.885 | 0.751 | 0.528 | 0.351 | 0.422 | 0.369 | 0.187 | 0.481 |  | 0.561 | 0.579 | 0.343 |  | 
NCI-H2228 | 0.906 | 0.938 | 0.882 | 0.166 | 0.451 | 0.514 | 0.516 | 0.398 | 0.231 | 0.496 | 0.575 | 0.456 | 0.197 | 0.444 | 0.403 | 0.464 | 0.335 | 0.298 | 0.878 | 0.499
